# Measurements from patent US7238688B2, “Piperidine compounds” (Schering Corporation, priority 2001, dated 2007).
# Several values for one entry are separate records, joined by “and”; a condition that tells them apart may be missing. Identical values can stand only once.
# Molecular target: T1, H3 receptors (Cavia porcellus, UniProt Q9JI35)
# T1 construct: The source of the H3 receptors in this experiment was guinea pig brain; from tissue; host or cells: guinea pig brain membranes
# Test: H3-Receptor Binding Assay
# Conditions: guinea pig brain membranes; 3 nM [3H]R-α-methyl histamine or 3 nM [3H]N-methyl histamine; 30° C. for 30 min
# Protocol: General Procedure for H3-Receptor Binding Assay
# The source of the H3 receptors in this experiment was guinea pig brain. The animals weighed 400–600 g. The brain tissue was homogenized with a solution of 50 mM Tris, pH 7.5. The final concentration of tissue in the homogenization buffer was 10% w/v. The homogenates were centrifuged at 1,000×g for 10 min. in order to remove clumps of tissue and debris. The resulting supernatants were then centrifuged at 50,000×g for 20 min. in order to sediment the membranes, which were next washed three times in homogenization buffer (50,000×g for 20 min. each). The membranes were frozen and stored at −70° C. until needed.
# All compounds to be tested were dissolved in DMSO and then diluted into the binding buffer (50 mM Tris, pH 7.5) such that the final concentration was 2 μg/ml with 0.1% DMSO. Membranes were then added (400 μg of protein) to the reaction tubes. The reaction was started by the addition of 3 nM[^3H]R-α-methyl histamine (8.8 Ci/mmol) or 3 nM [^3H]N[…] -methyl histamine (80 Ci/mmol) and continued under incubation at 30° C. for 30 min. Bound ligand was separated from unbound ligand by filtration, and the amount of radioactive ligand bound to the membranes was quantitated by liquid scintillation spectrometry.
# T1 sequence (Q9JI35 whole entry): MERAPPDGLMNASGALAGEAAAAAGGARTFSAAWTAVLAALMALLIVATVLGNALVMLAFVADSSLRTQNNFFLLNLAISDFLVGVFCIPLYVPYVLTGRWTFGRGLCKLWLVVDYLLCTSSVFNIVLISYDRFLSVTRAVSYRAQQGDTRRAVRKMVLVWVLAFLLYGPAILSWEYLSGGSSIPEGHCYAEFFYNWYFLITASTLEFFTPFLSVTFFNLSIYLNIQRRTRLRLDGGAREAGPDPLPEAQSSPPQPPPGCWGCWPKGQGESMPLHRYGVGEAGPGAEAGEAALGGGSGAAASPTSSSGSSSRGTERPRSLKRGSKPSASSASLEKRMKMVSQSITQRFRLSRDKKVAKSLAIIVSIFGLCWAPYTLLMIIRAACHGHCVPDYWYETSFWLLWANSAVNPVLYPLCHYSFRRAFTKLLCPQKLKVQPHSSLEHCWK
row,Compound,Ki
1,O=C(C1CCN(Cc2ccncc2)CC1)N1CCN(Cc2ccccc2Br)CC1 [Compound 93],0.2 to 35 nM
2,O=C(NCCc1ccccc1)c1cccc(CN2CCN(C(=O)C3CCN(Cc4ccncc4)CC3)CC2)c1 [Compound 276],0.2 to 35 nM
3,Nc1cc(CN2CCC(C(=O)N3CCN(Cc4c(F)ccc(F)c4F)CC3)CC2)ccn1 [Compound 306],0.2 to 35 nM and 2 to 22 nM
4,Nc1cc(CN2CCC(C(=O)N3CCN(Cc4cccc(Cl)c4S(=O)(=O)N4CCOCC4)CC3)CC2)ccn1 [Compound 317],0.2 to 35 nM
5,Nc1cc(CN2CCC(C(=O)N3CCN(Cc4cc(F)ccc4Br)CC3)CC2)ccn1 [Compound 328],0.2 to 35 nM
6,Cc1noc(C)c1CN1CCN(C(=O)C2CCN(Cc3ccnc(N)c3)CC2)CC1 [Compound 331],0.2 to 35 nM
7,CN(C)S(=O)(=O)c1cc(F)ccc1CN1CCN(C(=O)C2CCN(Cc3ccnc(N)c3)CC2)CC1 [Compound 332],0.2 to 35 nM and 2 to 22 nM
8,Nc1cc(CN2CCC(C(=O)N3CCN(Cc4cc(-c5ccc(Cl)cc5)on4)CC3)CC2)ccn1 [Compound 333],0.2 to 35 nM and 2 to 22 nM
9,Nc1cc(CN2CCC(C(=O)N3CCN(Cc4c(F)cccc4Cl)CC3)CC2)ccn1 [Compound 336],0.2 to 35 nM and 2 to 22 nM
10,CN(c1ccc(Cl)cc1)S(=O)(=O)c1cc(F)ccc1CN1CCN(C(=O)C2CCN(Cc3ccnc(N)c3)CC2)CC1 [Compound 343],0.2 to 35 nM
11,Nc1cc(CN2CCC(C(=O)N3CCN(S(=O)(=O)c4ccc(Cl)cc4)CC3)CC2)ccn1 [Compound 366],0.2 to 35 nM and 2 to 22 nM
12,CN(C)S(=O)(=O)N1CCN(C(=O)C2CCN(Cc3ccnc(N)c3)CC2)CC1 [Compound 367],0.2 to 35 nM
13,Nc1cc(CN2CCC(C(=O)N3CCN(S(=O)(=O)c4ccccc4Cl)CC3)CC2)ccn1 [Compound 374],0.2 to 35 nM and 2 to 22 nM
14,Nc1cc(CN2CCC(C(=O)N3CCN(S(=O)(=O)c4cc(Cl)cc(Cl)c4)CC3)CC2)ccn1 [Compound 376],0.2 to 35 nM
